According to PubChem BioAssay (NCI):
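Step 1: Grow cells in 96-well plates. Step 2: Expose to compound for 48 hours at 5 concentrations. Step 3: Interpolate endpoints linearly; if unreached, use highest concentration. Abbreviation: GI50, concentration required for 50% inhibition of growth. TGI marks complete inhibition of growth.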

Columns and labels:
Assay in all cases: NCI tumour cell line growth inhibition, 48 h
A498 renal = test system: A498 renal
HCC-2998 colon = test system: HCC-2998 colon
K-562 leukemia = test system: K-562 leukemia
M14 melanoma = test system: M14 melanoma
MOLT-4 leukemia = test system: MOLT-4 leukemia
OVCAR-3 ovarian = test system: OVCAR-3 ovarian
OVCAR-5 ovarian = test system: OVCAR-5 ovarian
SNB-19 CNS = test system: SNB-19 CNS
SW-620 colon = test system: SW-620 colon
T-47D breast = test system: T-47D breast

SMILES | GI50 (A498 renal) [µM] | TGI (A498 renal) [µM] | GI50 (HCC-2998 colon) [µM] | TGI (HCC-2998 colon) [µM] | GI50 (K-562 leukemia) [µM] | TGI (K-562 leukemia) [µM] | GI50 (M14 melanoma) [µM] | TGI (M14 melanoma) [µM] | GI50 (MOLT-4 leukemia) [µM] | TGI (MOLT-4 leukemia) [µM] | GI50 (OVCAR-3 ovarian) [µM] | TGI (OVCAR-3 ovarian) [µM] | GI50 (OVCAR-5 ovarian) [µM] | TGI (OVCAR-5 ovarian) [µM] | GI50 (SNB-19 CNS) [µM] | TGI (SNB-19 CNS) [µM] | GI50 (SW-620 colon) [µM] | TGI (SW-620 colon) [µM] | GI50 (T-47D breast) [µM] | TGI (T-47D breast) [µM]
CCC(=O)c1c(C(F)(F)F)n([O-])c2cc(F)c(F)cc2[n+]1=O | 1.74 | 4.92 | 1.45 | 2.9 | 0.154 | > 100 | 0.308 | 0.951 | 0.196 | > 100 | 0.296 | 0.836 | 1.32 | 2.75 | 1.35 | 3.91 | 0.46 | 2.21 | 0.57 | 7.04
CN(Cc1cnc2nc(N)nc(N)c2n1)c1ccc(C(=O)NC(CCC(=O)O)C(=O)O)cc1Br (centres undefined) | < 0.01 | 4.71 | < 0.01 | – | < 0.01 | > 100 | < 0.01 | 5.95 | < 0.01 | > 46.3 | < 0.01 | 4.43 | < 0.031 | > 100 | < 0.01 | > 100 | < 0.01 | > 83.9 | 0.113 | > 100
COc1ccc(/C(C#N)=C2C=C/C(=N/O)c3ccccc3\2)cc1 | 2.21 | 6.75 | 0.346 | 1.44 | 0.105 | 14.3 | 0.228 | 2.01 | 0.357 | 12.6 | 0.314 | 2.79 | 2.96 | 16.5 | 2.8 | 29.6 | 0.262 | 14.4 | 13.7 | 39.7
CO[C@H]1C[C@@H]2CC[C@@H](C)[C@@](O)(O2)C(=O)C(=O)N2CCCC[C@H]2C(=O)O[C@H]([C@H](C)C[C@@H]2CC[C@@H](OCCO)[C@H](OC)C2)CC(=O)[C@H](C)C=C(C)[C@@H](O)[C@@H](OC)C(=O)[C@H](C)C[C@H](C)/C=C/C=C/C=C1C | < 0.01 | 16.3 | 4.48 | 22.1 | 2.41 | 31.4 | 3.12 | 20.5 | – | 20.3 | < 0.01 | 16.7 | < 0.01 | 20.3 | – | 19.5 | 8.49 | 23.9 | < 0.01 | 21.5
COc1nnc2ccc(N3CCC(c4ccc(OCCN5CCN(C)C(=O)[C@H]5C)cc4)CC3)nn12 | 0.0813 | 3.06 | 0.138 | 16.1 | 0.0755 | > 100 | 0.0934 | > 100 | 0.328 | > 100 | 0.0975 | 53.1 | 0.492 | > 100 | 0.224 | > 100 | 5.03 | > 100 | 0.0618 | > 69.2
COC(=O)c1ccc(NC(=O)Oc2ccc(N(CCCl)CCCl)cc2)cc1 | 3.35 | 14.9 | 29.1 | > 100 | 4.85 | > 100 | 5.97 | > 100 | – | – | 7.77 | 22.3 | 30.8 | > 100 | 5.17 | > 100 | 4.89 | > 100 | 2.87 | 50.8
c1cc2c(cn1)Nc1ccncc1S2 | 19.5 | 55.4 | 49.8 | > 100 | 55.4 | > 100 | 32.6 | > 100 | 33.4 | > 100 | 83 | > 100 | 25.2 | > 100 | 39 | > 100 | 35.4 | > 100 | 34.8 | > 100
CCOC(=O)c1cnc2c(C)cccc2c1Nc1ccc(C(C)=O)cc1 | 11.9 | 63.4 | 53.3 | > 100 | > 100 | > 100 | 77.8 | > 100 | 43.6 | > 100 | 26.1 | > 100 | 34.6 | > 100 | 40.2 | > 100 | 92.6 | > 100 | 8.2 | 44.9
COC(=O)CSSCc1ccc([N+](=O)[O-])cc1 | – | 45.7 | – | 41 | – | > 100 | – | 46.4 | – | > 100 | – | 46.5 | – | 35.6 | – | 77.2 | – | 36.8 | – | 51.7
COc1ccc(N=N/C(C(=O)C(F)(F)F)=C(\O)c2ccc(Cl)cc2)cc1 | 10.9 | 23.8 | 4.01 | 16.2 | 3.47 | > 100 | 2.84 | 14.9 | 5.09 | 53 | 7.21 | 35.4 | 12.5 | > 100 | 16.5 | > 100 | 4.36 | > 100 | 5.98 | 64.9
O=C1Cc2cc(C(=O)NC3C[C@H]4CC[C@@H](C3)N4S(=O)(=O)CC3CCN(CCCC(F)(F)F)CC3)c(Cl)cc2N1 (some centres undefined) | > 100 | > 100 | > 100 | > 100 | – | – | > 100 | > 100 | > 100 | > 100 | > 100 | > 100 | > 100 | > 100 | > 100 | > 100 | > 100 | > 100 | > 100 | > 100
COc1cccc(/C=C2\COc3ccc(-c4ccccc4)cc3C2=O)c1 | 1.89 | 3.52 | 2 | 3.95 | 3.32 | > 100 | 3.87 | 14.9 | 3.09 | > 100 | – | – | 3.67 | 13.2 | 2.7 | 7.21 | 2.01 | 4.54 | 2.03 | 4.98
CN(CC(=O)N(Cc1ccc(C2CCCCC2)cc1)c1ccc(C(=O)O)cc1)S(=O)(=O)c1c(F)c(F)c(F)c(F)c1F | 2.15 | 7.65 | 1.76 | 3.22 | 1.93 | 5.81 | 1.91 | 3.59 | 2.42 | 6.14 | 1.79 | 3.19 | 10.8 | 23.8 | – | – | 2.03 | 4.05 | 2.09 | 4.83
